pIC50: −log10 of the molar value.
Biological target: T1, human CCR4 (Homo sapiens, UniProt P51679)
T1 construct: expressed in transfected cells; host or cells: CHO-dhfr(-)
T1 sequence (P51679 1-360): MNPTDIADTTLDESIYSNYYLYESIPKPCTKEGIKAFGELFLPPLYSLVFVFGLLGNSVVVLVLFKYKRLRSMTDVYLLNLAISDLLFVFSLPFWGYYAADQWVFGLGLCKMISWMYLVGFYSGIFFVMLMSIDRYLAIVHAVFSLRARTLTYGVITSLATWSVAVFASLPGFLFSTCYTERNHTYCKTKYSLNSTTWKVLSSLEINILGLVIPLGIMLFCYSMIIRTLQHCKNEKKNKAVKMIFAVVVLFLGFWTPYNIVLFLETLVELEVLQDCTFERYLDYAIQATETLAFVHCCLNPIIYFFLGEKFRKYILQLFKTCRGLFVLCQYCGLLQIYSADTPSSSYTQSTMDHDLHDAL
Test: Inhibition test on activity of MDC mediated by CCR4 (MDC-induced transient increase of Ca ions) in CCR4/CHO cells
Format: cell-based
Settings: in the presence of 0.3% BSA; human MDC 10 nM; CCR4/CHO cell; read-out: IC50 value (inhibition of Ca2+ transient increase by MDC)
Protocol: Human bone marrow cell cDNA was prepared using Marathon cDNA amplification kit (manufactured by Clontech). PCR primers hCCR4XbaI-F1 (SEQ ID NO:1) and hCCR4XbaI-R1 (SEQ ID NO:2) were designed based on the sequence of GenBankX85740.
Using the human bone marrow cell cDNA as the template and using Ex Taq (manufactured by Takara), a PCR reaction (2 minutes at 95° C.→[30 seconds at 95° C., 45 seconds at 60° C., 1 minute at 72° C.]×35 times) was carried out. The thus amplified PCR product was subjected to 1% agarose gel electrophoresis, purified using QIAquick Gel Extraction Kit (manufactured by QUIAGEN) and then digested with a restriction enzyme XbaI. […]
The thus established human CCR4 stably overexpressing CHO cell (CCR4/CHO cell) was suspended in Ham's F-12 medium and FBS (10%) and dispensed into a 96-well plate at 3.0×10^4 cells/well. […] Transient increase in the intracellular Ca^2+ concentration induced by the human MDC was measured using a Ca^2+ detector for 96-well (manufactured by Hamamatsu Photonics), and inhibition ratio (%) of the test compound was calculated by the following equation: Inhibition ratio=[(Ec−Ea)/Ec]×100 • Ec: measured value of Ca^2+ transient increase by MDC; and • Ea: measured value of Ca^2+ transient increase by MDC when a test compound was added […]

| Compound | pIC50 |
| --- | --- |
| COc1ccc(COc2cc(Br)cnc2NS(=O)(=O)c2ccc(C)cc2)cc1OCCN(C)C [Example 2(2), N-[5-bromo-3-({3-[2-(dimethylamino)ethoxy]-4-methoxybenzyl}oxy)pyridin-2-yl]-4-methylbenzenesulfonamide] | 6.64 |
| Cc1cnc(NS(=O)(=O)c2ccccc2Cl)c(OCc2ccc(Cl)c(OCC3CCN(C)CC3)c2)n1 [Example 6(1)] | 7.10 |

Reference: US7732442B2 (Ono Pharmaceutical Co., Ltd., priority 2003, dated 2010)
